According to patent publication US11584732B2, “Methods of treatment using 4-(3-cyanophenyl)-6-pyridinylpyrimidine mGlu5 modulators” (Heptares Therapeutics Limited, priority 2013, dated 2023):

Tested on: CD-1 mice
Assay: In vivo efficacy test - marble burying
Design: species or system mouse
Conditions: male CD-1 mice, po, 30 min prior to test; at a dose of 10 and 30 mg/kg versus vehicle group

N#Cc1cc(Cl)cc(-c2cc(-c3ccc(F)cn3)ncn2)c1 [Example 17, 3-chloro-5-[6-(5-fluoropyridin-2-yl)pyrimidin-4-yl]benzonitrile]
number of marbles buried: statistically significant decrease
